What all share (design): species or system Human immunodeficiency virus 1
The target in experiment [1] is T1, Protein Tat (Human immunodeficiency virus type 1 group M subtype B (isolate HXB2)(HIV-1), UniProt P04608).
T1 sequence (P04608 whole entry): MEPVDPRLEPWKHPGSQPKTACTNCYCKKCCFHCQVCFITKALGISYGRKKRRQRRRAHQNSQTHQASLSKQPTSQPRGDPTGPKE
The experiment is described as follows: In vitro binding affinity towards Tat/TAR to determine interaction between TAR RNA and Tat peptide at room temperature using fluorescence spectrophotometer; nb denotes no binding.

The target in experiment [2] is T1, Protein Tat. The experiment is described as follows: In vitro binding affinity towards Tat/TAR to determine interaction between TAR RNA and Tat peptide at room temperature using fluorescence spectrophotometer.
Experiment [3] addresses T1, Protein Tat. The experiment is described as follows: In vitro binding affinity towards Tat/TAR to determine interaction between TAR RNA and Tat peptide at room temperature using fluorescence spectrophotometer; mb denotes multiple binding.

As for `N=c1c(O)c(O)/c1=N\CCCC(N)COC(=O)NC(CCCCN)COC(N)=O` (configuration not stated), the dissociation constant (Kd) entry at Protein Tat [1] was “Not Active”.

Molecule `N=c1c(O)c(O)/c1=N\CCCC(N)COC(=O)NC(CCCN=C(N)N)COC(N)=O` (configuration not stated) had a Kd on Protein Tat [2] of 741 µM. As to `NCCCC[C@H](COC(N)=O)NC(=O)CN(CCCCN)C(=O)OCCN`, the Kd result on Protein Tat [1] is reported as “Not Active”. `N=C(N)NCCC[C@H](N)COC(=O)N(CCCCN)CC(=O)N[C@H](CCCCN)COC(N)=O` had a Kd at Protein Tat [2] of 1.8 µM.

For `NCCCC[C@H](COC(N)=O)NC(=O)CN(CCCCN)C(=O)OC[C@@H](N)CCCN=C(N)N[N+](=O)[O-]`, at Protein Tat [2], the Kd worked out at 952 µM. In turn, `N=c1c(O)c(O)/c1=N/CCC[C@H](N)COC(=O)N(CCCCN)CC(=O)N[C@H](CCCCN)COC(N)=O` registered an equilibrium dissociation constant (Kd) on Protein Tat [2] of 7.7 µM. In the case of `NC(=O)OCCNC(=O)CNC(=O)OC[C@@H](N)CCCN=C(N)N`, on Protein Tat [3], the Kd result is on record as “Multiple binding”.

By Kd is commonly meant the equilibrium constant for the complex coming apart. Read a low Kd as a tighter complex.
